From ChEMBL document CHEMBL1687791, “Identification and characterization of four azole-resistant erg3 mutants of Candida albicans” (2010)
In brackets after ≈: the same amount, converted by molar mass.

Tests used:
Format in all cases: functional
[1] = tested on: Candida albicans; test: Antifungal activity against Candida albicans isolate 177 by broth dilution method
[2] = tested on: Candida albicans; test: Antifungal activity against Candida albicans isolate 14 by broth microdilution method
[3] = tested on: Candida albicans; test: Antifungal activity against Candida albicans isolate 1008 harboring ERG3 K97E, L193P, V237A, A351V, A353T and ERG11 E266D mutant genes by broth microdilution method
[4] = tested on: Candida albicans; test: Antifungal activity against Candida albicans isolate 490 harboring ERG3 D147G, T330A, A351V and ERG11 F72S, T229A, E266D, N440S, V488I, R523G mutant genes by broth microdilution method
[5] = tested on: Candida albicans; test: Antifungal activity against Candida albicans isolate 488 harboring ERG3 H243N, T330A, A351V and ERG11 D225G, E266D, E391G, V488I mutant genes by broth microdilution method
[6] = tested on: Candida albicans; test: Antifungal activity against Candida albicans isolate 12 harboring ERG3 W332R mutant gene by broth microdilution method
[7] = tested on: Candida albicans; test: Antifungal activity against Candida albicans isolate 6 by broth microdilution method
[8] = tested on: Candida albicans; test: Antifungal activity against Candida albicans isolate 12 harboring ERG3 W332R mutant gene assessed as 14alpha-methylergosta-8,24(28)-dien-3beta,6alpha-diol content in total sterol composition at 0.5 times MIC by GC-MS analysis
[9] = tested on: Candida albicans; test: Antifungal activity against Candida albicans isolate 488 harboring ERG3 H243N, T330A, A351V and ERG11 D225G, E266D, E391G, V488I mutant genes by broth microdilution method in presence of 10 uM drug efflux inhibitor FK506
[10] = tested on: Candida albicans; test: Antifungal activity against Candida albicans isolate 177 assessed as eburicol content in total sterol composition at 0.5 times MIC by GC-MS analysis
[11] = tested on: Candida albicans; test: Antifungal activity against Candida albicans isolate 1008 harboring ERG3 K97E, L193P, V237A, A351V, A353T and ERG11 E266D mutant genes assessed as 14alpha-methyl fecosterol content in total sterol composition at 0.5 times MIC by GC-MS analysis
[12] = tested on: Candida albicans; test: Antifungal activity against Candida albicans isolate 6 by broth microdilution method in presence of 10 uM drug efflux inhibitor FK506
[13] = tested on: Candida albicans; test: Antifungal activity against Candida albicans isolate 490 harboring ERG3 D147G, T330A, A351V and ERG11 F72S, T229A, E266D, N440S, V488I, R523G mutant genes assessed as ergosterol content in total sterol composition at 0.5 times MIC by GC-MS analysis
[14] = tested on: Candida albicans; test: Antifungal activity against Candida albicans isolate 177 assessed as lanosterol/obtusifoliol content in total sterol composition at 0.5 times MIC by GC-MS analysis
[15] = tested on: Candida albicans; test: Antifungal activity against Candida albicans isolate 1008 harboring ERG3 K97E, L193P, V237A, A351V, A353T and ERG11 E266D mutant genes assessed as lanosterol/obtusifoliol content in total sterol composition at 0.5 times MIC by GC-MS analysis
[16] = tested on: Candida albicans; test: Antifungal activity against Candida albicans isolate 488 harboring ERG3 H243N, T330A, A351V and ERG11 D225G, E266D, E391G, V488I mutant genes assessed as 14alpha-methylergosta-8,24(28)-dien-3beta,6alpha-diol content in total sterol composition at 0.5 times MIC by GC-MS analysis
[17] = tested on: Candida albicans; test: Antifungal activity against Candida albicans isolate 177 assessed as 14alpha-methylergosta-8,24(28)-dien-3beta,6alpha-diol content in total sterol composition at 0.5 times MIC by GC-MS analysis
[18] = tested on: Candida albicans; test: Antifungal activity against Candida albicans isolate 488 harboring ERG3 H243N, T330A, A351V and ERG11 D225G, E266D, E391G, V488I mutant genes assessed as ergosterol content in total sterol composition at 0.5 times MIC by GC-MS analysis
[19] = tested on: Candida albicans; test: Antifungal activity against Candida albicans isolate 490 harboring ERG3 D147G, T330A, A351V and ERG11 F72S, T229A, E266D, N440S, V488I, R523G mutant genes assessed as 14alpha-methylergosta-8,24(28)-dien-3beta,6alpha-diol content in total sterol composition at 0.5 times MIC by GC-MS analysis
[20] = tested on: Candida albicans; test: Antifungal activity against Candida albicans isolate 12 harboring ERG3 W332R mutant gene assessed as ergosterol content in total sterol composition at 0.5 times MIC by GC-MS analysis
[21] = tested on: Candida albicans; test: Antifungal activity against Candida albicans isolate 177 by broth dilution method in presence of 10 uM drug efflux inhibitor FK506
[22] = tested on: Candida albicans; test: Antifungal activity against Candida albicans isolate 1008 harboring ERG3 K97E, L193P, V237A, A351V, A353T and ERG11 E266D mutant genes assessed as eburicol content in total sterol composition at 0.5 times MIC by GC-MS analysis
[23] = tested on: Candida albicans; test: Antifungal activity against Candida albicans isolate 6 assessed as ergosterol content in total sterol composition at 0.5 times MIC by GC-MS analysis
[24] = tested on: Candida albicans; test: Antifungal activity against Candida albicans isolate 12 harboring ERG3 W332R mutant gene assessed as 14alpha-methyl fecosterol content in total sterol composition at 0.5 times MIC by GC-MS analysis
[25] = tested on: Candida albicans; test: Antifungal activity against Candida albicans isolate 488 harboring ERG3 H243N, T330A, A351V and ERG11 D225G, E266D, E391G, V488I mutant genes assessed as lanosterol/obtusifoliol content in total sterol composition at 0.5 times MIC by GC-MS analysis
[26] = tested on: Candida albicans; test: Antifungal activity against Candida albicans isolate 488 harboring ERG3 H243N, T330A, A351V and ERG11 D225G, E266D, E391G, V488I mutant genes assessed as eburicol content in total sterol composition at 0.5 times MIC by GC-MS analysis
[27] = tested on: Candida albicans; test: Antifungal activity against Candida albicans isolate 488 harboring ERG3 H243N, T330A, A351V and ERG11 D225G, E266D, E391G, V488I mutant genes assessed as 14alpha-methyl fecosterol content in total sterol composition at 0.5 times MIC by GC-MS analysis
[28] = tested on: Candida albicans; test: Antifungal activity against Candida albicans isolate 490 harboring ERG3 D147G, T330A, A351V and ERG11 F72S, T229A, E266D, N440S, V488I, R523G mutant genes assessed as 14alpha-methyl fecosterol content in total sterol composition at 0.5 times MIC by GC-MS analysis
[29] = tested on: Candida albicans; test: Antifungal activity against Candida albicans isolate 490 harboring ERG3 D147G, T330A, A351V and ERG11 F72S, T229A, E266D, N440S, V488I, R523G mutant genes assessed as lanosterol/obtusifoliol content in total sterol composition at 0.5 times MIC by GC-MS analysis
[30] = tested on: Candida albicans; test: Antifungal activity against Candida albicans isolate 12 harboring ERG3 W332R mutant gene assessed as eburicol content in total sterol composition at 0.5 times MIC by GC-MS analysis
[31] = tested on: Candida albicans; test: Antifungal activity against Candida albicans isolate 12 harboring ERG3 W332R mutant gene assessed as lanosterol/obtusifoliol content in total sterol composition at 0.5 times MIC by GC-MS analysis
[32] = tested on: Candida albicans; test: Antifungal activity against Candida albicans isolate 12 harboring ERG3 W332R mutant gene by broth microdilution method in presence of 10 uM drug efflux inhibitor FK506
[33] = tested on: Candida albicans; test: Antifungal activity against Candida albicans isolate 177 assessed as ergosterol content in total sterol composition at 0.5 times MIC by GC-MS analysis
[34] = tested on: Candida albicans; test: Antifungal activity against Candida albicans isolate 12 harboring ERG3 W332R mutant gene assessed as ergosta 7,22-dienol content in total sterol composition at 0.5 times MIC by GC-MS analysis
[35] = tested on: Candida albicans; test: Antifungal activity against Candida albicans isolate 1008 harboring ERG3 K97E, L193P, V237A, A351V, A353T and ERG11 E266D mutant genes by broth microdilution method in presence of 10 uM drug efflux inhibitor FK506
[36] = tested on: Candida albicans; test: Antifungal activity against Candida albicans isolate 490 harboring ERG3 D147G, T330A, A351V and ERG11 F72S, T229A, E266D, N440S, V488I, R523G mutant genes by broth microdilution method in presence of 10 uM drug efflux inhibitor FK506
[37] = tested on: Candida albicans; test: Antifungal activity against Candida albicans isolate 6 assessed as eburicol content in total sterol composition at 0.5 times MIC by GC-MS analysis
[38] = tested on: Candida albicans; test: Antifungal activity against Candida albicans isolate 14 assessed as lanosterol/obtusifoliol content in total sterol composition at 0.5 times MIC by GC-MS analysis
[39] = tested on: Candida albicans; test: Antifungal activity against Candida albicans isolate 177 assessed as 14alpha-methyl fecosterol content in total sterol composition at 0.5 times MIC by GC-MS analysis
[40] = tested on: Candida albicans; test: Antifungal activity against Candida albicans isolate 14 assessed as ergosterol content in total sterol composition at 0.5 times MIC by GC-MS analysis
[41] = tested on: Candida albicans; test: Antifungal activity against Candida albicans isolate 14 by broth microdilution method in presence of 10 uM drug efflux inhibitor FK506

`C[C@@H]1[C@H](O)[C@@H](C)/C=C/C=C/C=C/C=C/C=C/C=C/C=C/[C@H](O[C@@H]2O[C@H](C)[C@@H](O)[C@H](N)[C@@H]2O)C[C@@H]2O[C@](O)(C[C@@H](O)C[C@@H](O)[C@H](O)CC[C@@H](O)C[C@@H](O)CC(=O)O[C@H]1C)C[C@H](O)[C@H]2C(=O)O` [AMPHOTERICIN B] gave an MIC [1] of 0.25 µg/mL (≈ 0.271 µM), an MIC [2] of 0.25 µg/mL (≈ 0.271 µM) and an MIC [3] of 1 µg/mL (≈ 1.08 µM). It also gave an MIC [4] of 0.25 µg/mL (≈ 0.271 µM), an MIC [5] of 0.25 µg/mL (≈ 0.271 µM) and an MIC [6] of 0.5 µg/mL (≈ 0.541 µM). It also gave an MIC [7] of 0.25 µg/mL (≈ 0.271 µM).
`Clc1ccccc1C(c1ccccc1)(c1ccccc1)n1ccnc1` [CLOTRIMAZOLE] was tested, and the MIC [1] was 1 µg/mL (≈ 2.9 µM), the MIC [2] was 0.0625 µg/mL (≈ 0.181 µM) and the MIC [3] was 1 µg/mL (≈ 2.9 µM). It also gave an MIC [4] of 1 µg/mL (≈ 2.9 µM), an MIC [5] of 1 µg/mL (≈ 2.9 µM) and an MIC [6] of 1 µg/mL (≈ 2.9 µM). For the same compound, the MIC [7] was 1 µg/mL (≈ 2.9 µM).
For `OC(Cn1cncn1)(Cn1cncn1)c1ccc(F)cc1F` [FLUCONAZOLE], the MIC [1] was 256 µg/mL (≈ 836 µM), the Activity [8] was 1.6% and the MIC [9] was 2 µg/mL. For the same compound, the Activity [10] was 4.9%, the Activity [11] was 74% and the MIC [12] was 1 µg/mL. The Activity [13] was 3.5%, the Activity [14] was 10.6% and the Activity [15] was 14.4%. The Activity [16] was 14.3%, the Activity [17] was 6.5% and the Activity [18] was 7.2%. For the same compound, the MIC [2] was 1 µg/mL (≈ 3.27 µM), the Activity [19] was 13.7% and the Activity [20] was 2.6%. For the same compound, the MIC [3] was greater than 256 µg/mL, the MIC [21] was 0.5 µg/mL and the Activity [22] was 9.8%. For the same compound, the Activity [23] was 74.5%, the MIC [4] was greater than 256 µg/mL and the Activity [24] was 64.3%. It also gave an Activity [25] of 15.2%, an Activity [26] of 7.7% and an MIC [5] greater than 256 µg/mL. It also gave an MIC [6] greater than 256 µg/mL, an MIC [7] of 256 µg/mL (≈ 836 µM) and an Activity [27] of 55.6%. The Activity [28] was 69.2%, the Activity [29] was 13.7% and the Activity [30] was 11.6%. For the same compound, the Activity [31] was 18.3%, the MIC [32] was greater than 256 µg/mL and the Activity [33] was 76%. The Activity [34] was 1.7%, the MIC [35] was greater than 256 µg/mL and the MIC [36] was 2 µg/mL. It also gave an Activity [37] of 5.4%, an Activity [38] of 10.6% and an Activity [39] of 2%. The Activity [40] was 89.4% and the MIC [41] was 1 µg/mL.
